Some test systems named below: Hs-578T; SF-539; MDA-MB-231; SK-OV-3; SK-MEL-28; BT-549; U-251; M14; OVCAR-3; SK-MEL-2; CCRF-CEM; OVCAR-4; IGROV-1; NCI/ADR-RES; HL-60; MDA-N; MCF7; RPMI-8226; NCI-H460; SR.
Experiment in all cases: inhibition of tumour cell growth, NCI panel, 48 h

Each structure is given as a SMILES string.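 Tested at 5 concentrations; 48 h exposure; 96-well plates; endpoints linearly interpolated, else capped at highest concentration. The concentration for 50% growth inhibition is given as GI50.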 Activity calls are given as the source filed them. Cut-off read from the data, not from the text of the source: active = GI50 up to about 1.1 µM and inactive = higher.

Regarding `CCc1cn(C2CC(CO)C(CO)S2)c(=O)[nH]c1=O` (stereo not drawn), the GI50 in the assay on Hs-578T, in the assay on SF-539, in the assay on MDA-MB-231, in the assay on SK-OV-3, in the assay on SK-MEL-28 and in the assay on BT-549 was > 100 µM (inactive) in each case. Besides, the GI50 in the assay with U-251, in the assay on M14, in the assay with OVCAR-3, in the assay on SK-MEL-2, in the assay with CCRF-CEM and in the assay on OVCAR-4 was > 100 µM (inactive) in each case. The GI50 with IGROV-1, with NCI/ADR-RES, in the assay on HL-60, in the assay on MDA-N, in the assay on MCF7 and with RPMI-8226 was > 100 µM (inactive) each time.

For the compound `CN(C)CCS/C(=N\c1ccccc1)N1C=COC=C1`, the GI50 in the assay on Hs-578T is 89.1 µM (inactive); in the assay with SF-539, 29.2 µM (inactive); with MDA-MB-231, 20.9 µM (inactive); in the assay with SK-OV-3 it was > 100 µM (inactive); in the assay with SK-MEL-28, 19.5 µM (inactive); in the assay with BT-549, > 100 µM (inactive). Also, the GI50 in the assay on U-251 is 48 µM (inactive); in the assay on M14, 18 µM (inactive); in the assay on OVCAR-3, 46 µM (inactive); in the assay with SK-MEL-2, 17.3 µM (inactive); in the assay on CCRF-CEM, > 74.6 µM (inactive); in the assay on OVCAR-4, > 44.6 µM (inactive). For the same compound, the GI50 in the assay on IGROV-1 was 18 µM (inactive); in the assay on HL-60 it was > 77.6 µM (inactive); in the assay on MDA-N it was 24 µM (inactive); in the assay with MCF7, 17.9 µM (inactive); in the assay with NCI-H460 it was > 68.5 µM (inactive); with SR, 68.9 µM (inactive). In addition, the GI50 with RPMI-8226 is 61.7 µM (inactive).

As to `CCOC(=O)/C(C(=O)Nc1ccc(F)cc1)=C(/N)N1CCOCC1`, the GI50 in the assay with Hs-578T, in the assay with MDA-MB-231, in the assay with SK-OV-3, in the assay on SK-MEL-28, in the assay on BT-549 and with U-251 was > 100 µM (inactive) in each case. The GI50 in the assay on M14, in the assay on OVCAR-3, in the assay with SK-MEL-2, in the assay on CCRF-CEM, in the assay on OVCAR-4 and with IGROV-1 was > 100 µM (inactive) throughout. Also, the GI50 with NCI/ADR-RES, in the assay on HL-60, in the assay on MDA-N, in the assay with MCF7, with NCI-H460 and with RPMI-8226 was > 100 µM (inactive) in each case.

Consider `FC(F)(F)c1ccc2nc(Sc3ccc4ccccc4c3)cnc2c1`, for which the GI50 was > 100 µM (inactive) in the assay on Hs-578T; 36.3 µM (inactive) in the assay on SF-539; 62.7 µM (inactive) in the assay with MDA-MB-231; > 100 µM (inactive) in the assay on SK-OV-3; > 100 µM (inactive) in the assay on SK-MEL-28; > 100 µM (inactive) in the assay on BT-549. In addition, the GI50 was 25.2 µM (inactive) in the assay with U-251; 87.9 µM (inactive) with M14; 23.1 µM (inactive) in the assay on SK-MEL-2; 24.4 µM (inactive) in the assay with CCRF-CEM; 51.5 µM (inactive) in the assay with OVCAR-4; > 100 µM (inactive) in the assay on IGROV-1. For the same compound, the GI50 in the assay on NCI/ADR-RES is 60 µM (inactive); in the assay with HL-60, 31.6 µM (inactive); with MDA-N, 38.5 µM (inactive); in the assay with MCF7 it was 45 µM (inactive); with NCI-H460 it was 73.1 µM (inactive).

With `COC1(OC)C[C@H](C)[C@@]23O[C@]24c2cc(O)c5c(c2N[C@H]3C#C/C=C\C#C[C@]14O)C(=O)c1ccccc1C5=O`, the GI50 is 0.0705 µM (active) in the assay with Hs-578T; 0.0142 µM (active) in the assay on MDA-MB-231; < 0.001 µM (active) in the assay with SK-OV-3; 0.00775 µM (active) in the assay with SK-MEL-28; 0.00519 µM (active) with BT-549; 0.005 µM (active) with U-251. For the same compound, the GI50 in the assay on M14 was 0.005 µM (active); in the assay on OVCAR-3 it was 0.0431 µM (active); in the assay on CCRF-CEM it was < 0.001 µM (active); with OVCAR-4, 0.0964 µM (active); in the assay on IGROV-1, 0.0148 µM (active); with NCI/ADR-RES, 0.005 µM (active). The GI50 in the assay with MDA-N was 0.00597 µM (active); in the assay on MCF7 it was 0.005 µM (active); in the assay on NCI-H460, < 0.001 µM (active); in the assay with RPMI-8226 it was 0.005 µM (active).

As for `CC(=O)Oc1ccc2cc(Oc3cc(Cl)c(Cl)cc3Cl)c(=O)oc2c1`, the GI50 was 22.2 µM (inactive) in the assay on Hs-578T; 16 µM (inactive) in the assay with SF-539; 16.4 µM (inactive) in the assay with MDA-MB-231; 26.2 µM (inactive) with SK-MEL-28; 13.1 µM (inactive) with BT-549; 15.6 µM (inactive) with U-251. Also, the GI50 is 18.2 µM (inactive) in the assay on M14; 16 µM (inactive) in the assay with OVCAR-3; 14 µM (inactive) with CCRF-CEM; 34.5 µM (inactive) in the assay on OVCAR-4; 11.2 µM (inactive) in the assay on IGROV-1; 22.7 µM (inactive) with HL-60. Moreover, the GI50 in the assay with MDA-N was 14.6 µM (inactive); in the assay on MCF7 it was 24.2 µM (inactive); in the assay with NCI-H460 it was 18.8 µM (inactive); in the assay on SR it was 19.8 µM (inactive).

In the case of `C[C@@H](CC(=O)O)OC1OC(COC(=O)C(C)(C)C)C(OC(=O)C(C)(C)C)C(OC(=O)C(C)(C)C)C1OC(=O)C(C)(C)C` (stereo partly drawn), the GI50 in the assay on Hs-578T was 58.7 µM (inactive); with SF-539, 52.8 µM (inactive); in the assay with MDA-MB-231, > 100 µM (inactive); in the assay with SK-OV-3, 73.6 µM (inactive); in the assay with SK-MEL-28, 89.7 µM (inactive); in the assay with BT-549 it was 57 µM (inactive). The GI50 with U-251 was 40 µM (inactive); in the assay on M14, > 100 µM (inactive); with OVCAR-3 it was 64.7 µM (inactive); with SK-MEL-2, 49 µM (inactive); in the assay on CCRF-CEM it was 26.5 µM (inactive); in the assay on IGROV-1 it was 72.3 µM (inactive). In addition, the GI50 with NCI/ADR-RES is > 100 µM (inactive); in the assay with HL-60, 21.9 µM (inactive); in the assay with MDA-N it was 69.7 µM (inactive); with MCF7, 41.2 µM (inactive); with NCI-H460 it was 29 µM (inactive); with RPMI-8226 it was 26.4 µM (inactive).

For the compound `COc1ccc(C(F)(F)F)cc1NC(=O)O/N=C(/Cl)C(C)C`, the GI50 was 30.4 µM (inactive) with Hs-578T; 18.3 µM (inactive) with SF-539; 19.4 µM (inactive) in the assay with MDA-MB-231; > 47.5 µM (inactive) in the assay with SK-OV-3; 21.4 µM (inactive) in the assay on SK-MEL-28; 20.7 µM (inactive) in the assay on BT-549. The GI50 was 26.4 µM (inactive) in the assay with U-251; 16.9 µM (inactive) in the assay on M14; 19.3 µM (inactive) in the assay with OVCAR-3; 18.8 µM (inactive) with SK-MEL-2; 2.24 µM (inactive) with CCRF-CEM; 19.1 µM (inactive) with OVCAR-4. Also, the GI50 in the assay with IGROV-1 was 17.9 µM (inactive); in the assay with NCI/ADR-RES, 23.6 µM (inactive); with HL-60, 2.76 µM (inactive); in the assay with MDA-N it was 16.3 µM (inactive); with MCF7, 21.2 µM (inactive); in the assay with NCI-H460, 37.6 µM (inactive). For the same compound, the GI50 in the assay on RPMI-8226 was 1.71 µM (inactive).

In the case of `O=[N+]([O-])c1ccc(/C=N/n2c(CO)nc3ccccc32)o1`, the GI50 is 12.7 µM (inactive) in the assay on Hs-578T; 17.9 µM (inactive) with SF-539; 5.36 µM (inactive) in the assay on MDA-MB-231; 18.2 µM (inactive) in the assay on SK-OV-3; 3.52 µM (inactive) with SK-MEL-28; 13.6 µM (inactive) in the assay with BT-549. In addition, the GI50 in the assay with U-251 is 13.9 µM (inactive); in the assay with M14, 4.17 µM (inactive); in the assay on OVCAR-3, 2.22 µM (inactive); in the assay on SK-MEL-2 it was 4.67 µM (inactive); in the assay on CCRF-CEM, 3.78 µM (inactive); with OVCAR-4, 7.1 µM (inactive). Further, the GI50 was 0.993 µM (active) with IGROV-1; 15.7 µM (inactive) in the assay with NCI/ADR-RES; 2.3 µM (inactive) in the assay on HL-60; 3.33 µM (inactive) in the assay on MDA-N; 2.96 µM (inactive) in the assay with MCF7; 3.29 µM (inactive) with NCI-H460. The GI50 in the assay with RPMI-8226 was 3.43 µM (inactive).

`NC1=CN(CCCO)C2=N/C(=C\c3ccccc3)C(=O)N12`: the GI50 was 86.3 µM (inactive) with Hs-578T; > 100 µM (inactive) in the assay on SF-539; > 100 µM (inactive) with MDA-MB-231; > 100 µM (inactive) with SK-OV-3; > 100 µM (inactive) in the assay with SK-MEL-28; > 100 µM (inactive) with BT-549. Also, the GI50 in the assay with U-251, in the assay with M14, with OVCAR-3, in the assay on SK-MEL-2, in the assay on CCRF-CEM and in the assay on OVCAR-4 was > 100 µM (inactive) each time. For the same compound, the GI50 in the assay on IGROV-1 is > 100 µM (inactive); in the assay with NCI/ADR-RES, > 100 µM (inactive); with HL-60 it was 42.9 µM (inactive); with MDA-N it was > 100 µM (inactive); in the assay with MCF7, > 100 µM (inactive); in the assay on NCI-H460, > 100 µM (inactive). Besides, in the assay on RPMI-8226, the GI50 was 83.4 µM (inactive).

As for `Nc1ccc(-c2nc3cc(F)ccc3s2)cc1I`, the GI50 in the assay on Hs-578T is 25.2 µM (inactive); with SF-539 it was 15.6 µM (inactive); with MDA-MB-231, 13.6 µM (inactive); with SK-OV-3, 14.4 µM (inactive); in the assay with SK-MEL-28 it was 52.7 µM (inactive); in the assay with BT-549, 13.5 µM (inactive). Moreover, the GI50 is 13.9 µM (inactive) in the assay with U-251; 39.3 µM (inactive) with M14; 0.255 µM (active) with OVCAR-3; 20.2 µM (inactive) with SK-MEL-2; > 100 µM (inactive) in the assay with CCRF-CEM; 0.0782 µM (active) with OVCAR-4. The GI50 in the assay on IGROV-1 is < 0.01 µM (active); in the assay on NCI/ADR-RES it was 18.8 µM (inactive); in the assay on HL-60, > 100 µM (inactive); in the assay with MDA-N it was > 100 µM (inactive); in the assay on MCF7, < 0.0154 µM (active); in the assay with NCI-H460 it was 0.0276 µM (active). Further, the GI50 with RPMI-8226 is > 100 µM (inactive).

For the origin of these results see ChEMBL document CHEMBL1201862, “PubChem BioAssay data set” (2004).
